In brackets after ≈: the same amount, converted by molar mass.
How the values were obtained:
[1] = test system: Mycobacterium tuberculosis; assay: Antimycobacterial activity against Mycobacterium tuberculosis H37Rv infected in human THP-1 cells assessed as inhibition of bacterial growth; format: functional, organism-based
[2] = test system: Mycobacterium tuberculosis; assay: Potentiation of ethionamide induced antibacterial activity against Mycobacterium tuberculosis H37Rv expressing GFP incubated for 5 days by fluorescence based analysis; format: functional, organism-based; settings: 120 h
[3] = test system: Mycobacterium tuberculosis; assay: Antimycobacterial activity against Mycobacterium tuberculosis H37Rv assessed as inhibition of bacterial growth incubated for 5 days by alamar blue assay; format: functional; settings: 120 h, time 5 day
[4] = test system: Mycobacterium tuberculosis; assay: Antitubercular activity against Mycobacterium tuberculosis H37Rv assessed as inhibition of bacterial growth by alamar blue assay; format: functional
[5] = test system: Mycobacterium tuberculosis; assay: Antimycobacterial activity against Mycobacterium tuberculosis H37Rv incubated for 5 weeks; format: functional; settings: 840 h
[6] = test system: Mycobacterium tuberculosis; assay: Antimycobacterial activity against Mycobacterium tuberculosis H37Rv incubated for 4 weeks; format: functional; settings: 672 h
[7] = test system: Mycobacterium tuberculosis; assay: Antimycobacterial activity against Mycobacterium tuberculosis H37Rv incubated for 3 weeks; format: functional; settings: 504 h
[8] = test system: Mycobacterium tuberculosis; assay: Antimycobacterial activity against Mycobacterium tuberculosis H37Rv incubated for 2 weeks; format: functional; settings: 336 h

| SMILES | IC50 [1] [nM] | EC50 [2] [nM] | also measured |
| --- | --- | --- | --- |
| O=C(CCC(F)(F)F)N1CCC(c2cncc(Cl)c2)C1 (stereo unspecified) | 10 | < 150 |  |
| O=C(CCC(F)(F)F)N1CCC(F)(c2cccnc2)CC1 | 10 | < 150 |  |
| Cc1cc(O)n2nc(N3CCCC3)c(C(=O)Nc3ccc(Cl)c(Cl)c3)c2n1 |  |  | MIC [3]: 25 µg/mL (≈ 61.5 µM) |
| O=C(CCC(F)(F)F)N1CCC(F)(c2ccnc(C(F)(F)F)c2)CC1 | 10 | < 150 |  |
| Cc1ccc(Nc2nn3c(O)cc(C)nc3c2C(=O)Nc2ccccc2)cc1 |  |  | MIC [3]: 100 µg/mL (≈ 268 µM) |
| Cc1cc(O)n2nc(Nc3ccc(Cl)c(Cl)c3)c(C(=O)Nc3cccc(C)c3C)c2n1 |  |  | MIC [3]: 50 µg/mL (≈ 110 µM) |
| O=C(CCC(F)(F)F)N1CCC2(CC1)CC(F)=NO2 | 50 | < 38 |  |
| O=C(CCC(F)(F)F)N1CCC(c2cccc(C(F)(F)F)n2)CC1 | 10 | < 150 |  |
| O=C(CCC(F)(F)F)N1CCC(c2cncc(C(F)(F)F)n2)CC1 | 10 | < 150 |  |
| O=C(CCC(F)(F)F)N1CCC(c2cncc(F)c2)CC1 | 10 | < 150 |  |
| O=C(CCC(F)(F)F)N1CCC(c2cncc(C(F)(F)F)c2)CC1 | 10 | < 150 |  |
| O=C(CCC(F)(F)F)N1CCC(F)(c2ccc(F)nc2)CC1 | 10 | < 150 |  |
| O=C(CCC(F)(F)F)N1CCC(c2ccncc2F)CC1 | 10 | < 150 |  |
| O=C(CCC(F)(F)F)N1CCC(c2ccc(F)nc2F)CC1 | 10 | < 150 |  |
| O=C(/C=C/c1ccco1)NNC(=O)c1ccncc1 |  |  | MIC [4]: 12.5 µg/mL (≈ 48.6 µM) |
| COc1ccc(NC(=O)c2c(Nc3ccccc3)nn3c(O)cc(C)nc23)cc1 |  |  | MIC [3]: 50 µg/mL (≈ 128 µM) |
| O=C(CCC(F)(F)F)N1CCC(c2ccc(F)cn2)CC1 | 10 | < 150 |  |
| Cc1ccc(Nc2nn3c(O)cc(C)nc3c2C(=O)Nc2ccc(F)c(Cl)c2)cc1 |  |  | MIC [3]: 12.5 µg/mL (≈ 29.4 µM) |
| O=C(Cc1ccccc1Br)NNC(=O)c1ccncc1 |  |  | MIC [4]: 25 µg/mL (≈ 74.8 µM) |
| COc1ccc(C2CCN(C(=O)CCC(F)(F)F)CC2)cn1 | 10 | < 150 |  |
| CC(C)(C)n1cc(C(=O)O)c(=O)c2cc(F)c(-c3cccc(Cl)c3)cc21 |  |  | MIC [5]: 4 µg/mL (≈ 10.7 µM); MIC [6]: 2 µg/mL (≈ 5.35 µM); MIC [7]: 2 µg/mL (≈ 5.35 µM); MIC [8]: 2 µg/mL (≈ 5.35 µM) |
| Cc1ccc(Nc2nn3c(O)cc(C)nc3c2C(=O)Nc2ccc(Cl)cc2)c(C)c1 |  |  | MIC [3]: 50 µg/mL (≈ 119 µM) |
| O=C(CCC(F)(F)F)N1CCC(c2cc(C(F)(F)F)ccn2)CC1 | 10 | < 150 |  |
| O=C(CCC(F)(F)F)N1CCC(c2ccnc(C(F)(F)F)c2)CC1 | 10 | < 150 |  |
| CC(C)(C)n1cc(C(=O)O)c(=O)c2cc(F)c(-c3ccccc3Cl)cc21 |  |  | MIC [5]: 8 µg/mL (≈ 21.4 µM); MIC [6]: 8 µg/mL (≈ 21.4 µM); MIC [7]: 8 µg/mL (≈ 21.4 µM); MIC [8]: 8 µg/mL (≈ 21.4 µM) |

| SMILES | IC50 [1] [nM] | EC50 [2] [nM] | also measured |
| --- | --- | --- | --- |
| O=C(CCC(F)(F)F)N1CCC(c2cccc(Cl)n2)CC1 | 10 | < 150 |  |
| O=C(CCC(F)(F)F)N1CC(c2ccc(F)cc2F)C1 | 10 | < 10 |  |
| Cc1cc(O)n2nc(Nc3ccc(Cl)cc3)c(C(=O)Nc3ccccc3)c2n1 |  |  | MIC [3]: 50 µg/mL (≈ 127 µM) |
| COc1ccc(Nc2nn3c(O)cc(C)nc3c2C(=O)Nc2ccc(C)cc2C)cc1 |  |  | MIC [3]: 50 µg/mL (≈ 120 µM) |
| CC1=NOC2(CCN(C(=O)CCC(F)(F)F)CC2)C1 | 50 | < 38 |  |
| COc1ccc(NC(=O)c2c(NN3CCOCC3)nn3c(O)cc(C)nc23)cc1 |  |  | MIC [3]: 25 µg/mL (≈ 62.7 µM) |
| O=C(COc1ccccc1)NNC(=O)c1ccncc1 |  |  | MIC [4]: 25 µg/mL (≈ 92.2 µM) |
| COc1ccc(NC(=O)c2c(Nc3ccc(OC)cc3)nn3c(O)cc(C)nc23)cc1 |  |  | MIC [3]: 12.5 µg/mL (≈ 29.8 µM) |
| O=C(CCC(F)(F)F)N1CCC(c2ccnc(F)c2)CC1 | 10 | < 150 |  |
| O=C(CCC(F)(F)F)N1CC(c2cc(F)c(F)c(F)c2)C1 | 10 | < 10 |  |
| COc1ccc(NC(=O)c2c(Nc3cccc(Cl)c3)nn3c(O)cc(C)nc23)cc1 |  |  | MIC [3]: 12.5 µg/mL (≈ 29.5 µM) |
| CCOc1ccc(NC(=O)c2c(Nc3ccc(C)cc3C)nn3c(O)cc(C)nc23)cc1 |  |  | MIC [3]: 50 µg/mL (≈ 116 µM) |
| O=C(CCC(F)(F)F)N1CCC(c2cncc(Cl)n2)CC1 | 10 | < 150 |  |
| Cc1cc(O)n2nc(Nc3ccccc3)c(C(=O)Nc3ccccc3)c2n1 |  |  | MIC [3]: 50 µg/mL (≈ 139 µM) |
| O=C(Cc1ccccc1Cl)NNC(=O)c1ccncc1 |  |  | MIC [4]: 25 µg/mL (≈ 86.3 µM) |
| Cc1cc(O)n2nc(Nc3ccc(Cl)cc3)c(C(N)=O)c2n1 |  |  | MIC [3]: 50 µg/mL (≈ 157 µM) |
| O=C(CCC(F)(F)F)N1CCC(F)(c2ccccn2)CC1 | 10 | < 150 |  |
| Cc1cc(C2CCN(C(=O)CCC(F)(F)F)CC2)ccn1 | 10 | < 150 |  |
| O=C(CCC(F)(F)F)N1CCC(c2ccc(F)nc2)CC1 | 10 | < 150 |  |
| O=C(CCC(F)(F)F)N1CCC(c2cccc(F)n2)CC1 | 10 | < 150 |  |
| CC(C)COC1=NOC2(CCN(C(=O)CCC(F)(F)F)CC2)C1 | 50 | < 38 |  |
| N#CC1=NOC2(CCN(C(=O)CCC(F)(F)F)CC2)C1 | 50 | < 38 |  |
| CC(C)(C)n1cc(C(=O)O)c(=O)c2cc(F)c(Oc3ccccc3)cc21 |  |  | MIC [5]: 16 µg/mL (≈ 45 µM); MIC [6]: 16 µg/mL (≈ 45 µM); MIC [7]: 16 µg/mL (≈ 45 µM); MIC [8]: 8 µg/mL (≈ 22.5 µM) |
| O=C(CCC(F)(F)F)N1CCC(c2cncc(Cl)c2)CC1 | 10 | < 150 |  |
